{"source": "ChEMBL document CHEMBL1144007", "about": "“Activity of Mannich bases of 7-hydroxycoumarin against Flaviviridae” (Bioorg Med Chem, 2008)", "key": {"Reovirus sp.": {"system": "Reovirus sp.", "assay": "Antiviral activity against Reovirus", "type": "functional, organism-based"}, "[1]": {"system": "Respiratory syncytial virus", "assay": "Antiviral activity against RSV A2 in VERO76 cells assessed as reduction of plaque number by MTT method", "type": "functional, organism-based", "settings": "human respiratory syncytial virus, A2, Vero 76"}, "Yellow fever virus": {"system": "Yellow fever virus", "assay": "Antiviral activity against YFV in BHK cells assessed as protection from virus-induced cytopathogenicity by MTT method", "type": "functional, organism-based"}, "[2]": {"system": "Human immunodeficiency virus 1", "assay": "Antiviral activity against HIV1", "type": "functional, organism-based"}, "[3]": {"assay": "Cytotoxicity against human MT4 cells after 96 hrs by MTT method", "type": "cell-based"}, "[4]": {"system": "Vesicular stomatitis virus", "assay": "Antiviral activity against vesicular stomatitis virus", "type": "functional, organism-based"}, "Vaccinia virus": {"system": "Vaccinia virus", "assay": "Antiviral activity against vaccinia virus", "type": "functional, organism-based", "settings": "Orthopoxvirus vaccinia"}, "[5]": {"system": "Bovine viral diarrhea virus 1", "assay": "Antiviral activity against BVDV NADL in MDBK cells assessed as protection from virus-induced cytopathogenicity by MTT method", "type": "functional, organism-based", "settings": "Bovine viral diarrhea virus isolates and strains"}, "Poliovirus 1": {"system": "Poliovirus 1", "assay": "Antiviral activity against Human poliovirus 1 Sabin", "type": "functional"}}, "note": "Calls of active or inactive are those of the source. The rule behind the calls is not given here."}
{"compound": "COc1ccc2c(=O)c(Cc3c(OC(C)=O)ccc4ccc(=O)oc34)c(N(C)C)oc2c1", "values": [{"measurement": "Activity", "setting": "Reovirus sp.", "value": "inactive"}, {"measurement": "EC50", "setting": "[1]", "value": "> 25", "unit": "µM"}, {"measurement": "EC50", "setting": "Yellow fever virus", "value": "> 100", "unit": "µM"}, {"measurement": "Activity", "setting": "[2]", "value": "inactive"}, {"measurement": "CC50 at 96 h", "setting": "[3]", "value": 26, "unit": "µM"}, {"measurement": "Activity", "setting": "[4]", "value": "inactive"}, {"measurement": "Activity", "setting": "Vaccinia virus", "value": "inactive"}, {"measurement": "EC50", "setting": "[5]", "value": "> 51", "unit": "µM"}, {"measurement": "Activity", "setting": "Poliovirus 1", "value": "inactive"}]}
{"compound": "CCOC(=O)N1CCN(Cc2c(OC(=O)c3ccccc3)ccc3ccc(=O)oc23)CC1", "values": [{"measurement": "Activity", "setting": "Reovirus sp.", "value": "inactive"}, {"measurement": "EC50", "setting": "[1]", "value": 90, "unit": "µM"}, {"measurement": "EC50", "setting": "Yellow fever virus", "value": "> 100", "unit": "µM"}, {"measurement": "Activity", "setting": "[2]", "value": "inactive"}, {"measurement": "CC50 at 96 h", "setting": "[3]", "value": "> 100", "unit": "µM"}, {"measurement": "Activity", "setting": "[4]", "value": "inactive"}, {"measurement": "Activity", "setting": "Vaccinia virus", "value": "inactive"}, {"measurement": "EC50", "setting": "[5]", "value": "> 100", "unit": "µM"}, {"measurement": "Activity", "setting": "Poliovirus 1", "value": "inactive"}]}
{"compound": "Cc1cc(=O)oc2c(CN3CCN(Cc4ccc5c(c4)OCO5)CC3)c(O)ccc12", "values": [{"measurement": "Activity", "setting": "Reovirus sp.", "value": "inactive"}, {"measurement": "EC50", "setting": "[1]", "value": "> 100", "unit": "µM"}, {"measurement": "EC50", "setting": "Yellow fever virus", "value": "> 100", "unit": "µM"}, {"measurement": "Activity", "setting": "[2]", "value": "inactive"}, {"measurement": "CC50 at 96 h", "setting": "[3]", "value": 72, "unit": "µM"}, {"measurement": "Activity", "setting": "[4]", "value": "inactive"}, {"measurement": "Activity", "setting": "Vaccinia virus", "value": "inactive"}, {"measurement": "EC50", "setting": "[5]", "value": 75, "unit": "µM"}, {"measurement": "Activity", "setting": "Poliovirus 1", "value": "inactive"}]}
{"compound": "COCCN(CCOC)c1oc2cc(OC)ccc2c(=O)c1Cc1c(OC(C)=O)ccc2ccc(=O)oc12", "values": [{"measurement": "Activity", "setting": "Reovirus sp.", "value": "inactive"}, {"measurement": "EC50", "setting": "[1]", "value": 7, "unit": "µM"}, {"measurement": "EC50", "setting": "Yellow fever virus", "value": "> 100", "unit": "µM"}, {"measurement": "Activity", "setting": "[2]", "value": "inactive"}, {"measurement": "CC50 at 96 h", "setting": "[3]", "value": "> 100", "unit": "µM"}, {"measurement": "Activity", "setting": "[4]", "value": "inactive"}, {"measurement": "Activity", "setting": "Vaccinia virus", "value": "inactive"}, {"measurement": "EC50", "setting": "[5]", "value": "> 100", "unit": "µM"}, {"measurement": "Activity", "setting": "Poliovirus 1", "value": "inactive"}]}
{"compound": "O=C(Oc1ccc2ccc(=O)oc2c1CN1CCN(Cc2ccc3c(c2)OCO3)CC1)c1ccccc1", "values": [{"measurement": "Activity", "setting": "Reovirus sp.", "value": "inactive"}, {"measurement": "EC50", "setting": "[1]", "value": 85, "unit": "µM"}, {"measurement": "EC50", "setting": "Yellow fever virus", "value": "> 100", "unit": "µM"}, {"measurement": "Activity", "setting": "[2]", "value": "inactive"}, {"measurement": "CC50 at 96 h", "setting": "[3]", "value": 74, "unit": "µM"}, {"measurement": "Activity", "setting": "[4]", "value": "inactive"}, {"measurement": "Activity", "setting": "Vaccinia virus", "value": "inactive"}, {"measurement": "EC50", "setting": "[5]", "value": 77, "unit": "µM"}, {"measurement": "Activity", "setting": "Poliovirus 1", "value": "inactive"}]}
{"compound": "Cc1cc(=O)oc2c(CN3CCc4ccccc4C3)c(OC(=O)c3ccccc3)ccc12", "values": [{"measurement": "Activity", "setting": "Reovirus sp.", "value": "inactive"}, {"measurement": "EC50", "setting": "[1]", "value": 18, "unit": "µM"}, {"measurement": "EC50", "setting": "Yellow fever virus", "value": "> 100", "unit": "µM"}, {"measurement": "Activity", "setting": "[2]", "value": "inactive"}, {"measurement": "CC50 at 96 h", "setting": "[3]", "value": "> 100", "unit": "µM"}, {"measurement": "Activity", "setting": "[4]", "value": "inactive"}, {"measurement": "Activity", "setting": "Vaccinia virus", "value": "inactive"}, {"measurement": "EC50", "setting": "[5]", "value": "> 100", "unit": "µM"}, {"measurement": "Activity", "setting": "Poliovirus 1", "value": "inactive"}]}
{"compound": "CC(=O)c1ccc(N2CCN(Cc3c(O)ccc4c(C)cc(=O)oc34)CC2)cc1", "values": [{"measurement": "Activity", "setting": "Reovirus sp.", "value": "inactive"}, {"measurement": "EC50", "setting": "[1]", "value": "> 100", "unit": "µM"}, {"measurement": "EC50", "setting": "Yellow fever virus", "value": "> 100", "unit": "µM"}, {"measurement": "Activity", "setting": "[2]", "value": "inactive"}, {"measurement": "CC50 at 96 h", "setting": "[3]", "value": 59, "unit": "µM"}, {"measurement": "Activity", "setting": "[4]", "value": "inactive"}, {"measurement": "Activity", "setting": "Vaccinia virus", "value": "inactive"}, {"measurement": "EC50", "setting": "[5]", "value": "> 100", "unit": "µM"}, {"measurement": "Activity", "setting": "Poliovirus 1", "value": "inactive"}]}
{"compound": "CC(=O)Oc1ccc2c(C)cc(=O)oc2c1Cc1c(C)n(C)c2ccccc12", "values": [{"measurement": "Activity", "setting": "Reovirus sp.", "value": "inactive"}, {"measurement": "EC50", "setting": "[1]", "value": 26, "unit": "µM"}, {"measurement": "EC50", "setting": "Yellow fever virus", "value": "> 58", "unit": "µM"}, {"measurement": "Activity", "setting": "[2]", "value": "inactive"}, {"measurement": "CC50 at 96 h", "setting": "[3]", "value": 24, "unit": "µM"}, {"measurement": "Activity", "setting": "[4]", "value": "inactive"}, {"measurement": "Activity", "setting": "Vaccinia virus", "value": "inactive"}, {"measurement": "EC50", "setting": "[5]", "value": "> 40", "unit": "µM"}, {"measurement": "Activity", "setting": "Poliovirus 1", "value": "inactive"}]}
{"compound": "COc1ccc2c(=O)c(Cc3c(OC(C)=O)ccc4c(C)cc(=O)oc34)c(N(C)C)oc2c1", "values": [{"measurement": "Activity", "setting": "Reovirus sp.", "value": "inactive"}, {"measurement": "EC50", "setting": "[1]", "value": 25, "unit": "µM"}, {"measurement": "EC50", "setting": "Yellow fever virus", "value": "> 100", "unit": "µM"}, {"measurement": "Activity", "setting": "[2]", "value": "inactive"}, {"measurement": "CC50 at 96 h", "setting": "[3]", "value": 42, "unit": "µM"}, {"measurement": "Activity", "setting": "[4]", "value": "inactive"}, {"measurement": "Activity", "setting": "Vaccinia virus", "value": "inactive"}, {"measurement": "EC50", "setting": "[5]", "value": "> 28", "unit": "µM"}, {"measurement": "Activity", "setting": "Poliovirus 1", "value": "inactive"}]}
{"compound": "CCCOc1ccc2c(C)cc(=O)oc2c1CN1CCN(C/C=C/c2ccccc2)CC1", "values": [{"measurement": "Activity", "setting": "Reovirus sp.", "value": "inactive"}, {"measurement": "EC50", "setting": "[1]", "value": "> 100", "unit": "µM"}, {"measurement": "EC50", "setting": "Yellow fever virus", "value": "> 53", "unit": "µM"}, {"measurement": "Activity", "setting": "[2]", "value": "inactive"}, {"measurement": "CC50 at 96 h", "setting": "[3]", "value": "> 100", "unit": "µM"}, {"measurement": "Activity", "setting": "[4]", "value": "inactive"}, {"measurement": "Activity", "setting": "Vaccinia virus", "value": "inactive"}, {"measurement": "EC50", "setting": "[5]", "value": 27, "unit": "µM"}, {"measurement": "Activity", "setting": "Poliovirus 1", "value": "inactive"}]}
{"compound": "Cc1cc(=O)oc2c(CN3CCCCC3)c(O)ccc12", "values": [{"measurement": "Activity", "setting": "Reovirus sp.", "value": "inactive"}, {"measurement": "EC50", "setting": "[1]", "value": "> 100", "unit": "µM"}, {"measurement": "EC50", "setting": "Yellow fever virus", "value": "> 100", "unit": "µM"}, {"measurement": "Activity", "setting": "[2]", "value": "inactive"}, {"measurement": "CC50 at 96 h", "setting": "[3]", "value": "> 100", "unit": "µM"}, {"measurement": "Activity", "setting": "[4]", "value": "inactive"}, {"measurement": "Activity", "setting": "Vaccinia virus", "value": "inactive"}, {"measurement": "EC50", "setting": "[5]", "value": "> 100", "unit": "µM"}, {"measurement": "Activity", "setting": "Poliovirus 1", "value": "inactive"}]}
